# Legend:
# [1] = target: T1, adenylyl cyclase activity in the striatum (type 5 adenylyl cyclase) (Mus musculus, UniProt P84309); assay: Membrane adenylyl cyclase assay, WT striatal membrane, forskolin-stimulated; format: biochemical; settings: 100 μM compound; 50 μM forskolin; WT striatal membrane; read-out: forskolin-stimulated adenylyl cyclase activity (relative to activity without inhibitor = 100)
# T1 construct: IC50 on adenylyl cyclase activity in the striatum; other: WT; estimated from 10, 50 and 100 μM; other: 100 μM compound
# T1 sequence (P84309 whole entry): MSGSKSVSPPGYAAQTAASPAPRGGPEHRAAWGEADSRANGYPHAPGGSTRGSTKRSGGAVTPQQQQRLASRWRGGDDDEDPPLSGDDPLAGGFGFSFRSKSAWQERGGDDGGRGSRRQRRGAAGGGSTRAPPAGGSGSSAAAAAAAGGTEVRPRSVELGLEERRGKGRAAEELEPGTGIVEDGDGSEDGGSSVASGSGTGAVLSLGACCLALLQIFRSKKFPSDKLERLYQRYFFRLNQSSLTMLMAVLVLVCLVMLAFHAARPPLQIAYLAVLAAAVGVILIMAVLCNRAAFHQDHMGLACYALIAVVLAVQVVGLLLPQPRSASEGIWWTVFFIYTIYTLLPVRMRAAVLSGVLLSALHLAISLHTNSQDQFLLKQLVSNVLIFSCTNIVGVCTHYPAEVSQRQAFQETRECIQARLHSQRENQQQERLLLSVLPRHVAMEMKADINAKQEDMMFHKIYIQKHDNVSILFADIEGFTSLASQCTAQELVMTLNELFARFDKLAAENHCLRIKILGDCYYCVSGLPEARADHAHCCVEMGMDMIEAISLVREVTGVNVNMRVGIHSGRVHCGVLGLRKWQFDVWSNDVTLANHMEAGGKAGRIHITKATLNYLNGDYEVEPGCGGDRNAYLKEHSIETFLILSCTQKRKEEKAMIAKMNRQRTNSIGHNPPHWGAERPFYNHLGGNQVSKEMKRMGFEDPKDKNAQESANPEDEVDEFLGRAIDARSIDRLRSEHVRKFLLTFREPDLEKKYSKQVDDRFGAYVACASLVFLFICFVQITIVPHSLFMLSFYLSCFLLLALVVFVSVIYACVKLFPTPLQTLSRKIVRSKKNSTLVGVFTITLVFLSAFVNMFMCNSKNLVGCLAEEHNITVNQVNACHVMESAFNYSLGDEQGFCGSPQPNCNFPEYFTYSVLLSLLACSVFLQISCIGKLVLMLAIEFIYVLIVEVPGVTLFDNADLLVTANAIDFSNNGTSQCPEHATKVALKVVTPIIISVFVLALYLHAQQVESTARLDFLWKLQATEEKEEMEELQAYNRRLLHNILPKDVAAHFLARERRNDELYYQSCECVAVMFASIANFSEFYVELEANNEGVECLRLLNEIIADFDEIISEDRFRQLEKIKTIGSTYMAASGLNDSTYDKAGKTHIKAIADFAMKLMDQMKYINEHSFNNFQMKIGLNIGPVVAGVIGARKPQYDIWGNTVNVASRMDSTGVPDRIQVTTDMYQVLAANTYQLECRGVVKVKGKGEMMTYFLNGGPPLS
# Description: FIG. 2 Inhibitory effects of various compounds on adenylyl cyclase activity in mouse striatum. The striatum is part of the brain. Here, it is known that type 5 adenylyl cyclase occupies almost all of the enzyme activity. […] Relative values are shown with adenylyl cyclase activity in the presence of 50 μM forskolin but in the absence of inhibitors being taken as 100 (n=4, means±S.E.).
# (§1) <Membrane Adenylyl Cyclase Assay>
# (§2) Striatal, cardiac and pulmonary tissues were removed from WT (C57BL) (Charles River Laboratories Japan, Inc.) and AC5KO (Circ. Res. 93: 364-371, 2003), both of which were 12-15 weeks of age after birth, and individual membrane protein fractions were prepared therefrom. The resultant membrane preparations were incubated with a reaction mixture (20 mM HEPES, pH 8, 5 mM MgCl2, 0.5 mM EDTA, pH 8, 0.1 mM ATP, 1 mM phospho creatine, 8 U/mL creatine phosphor kinase, 200 μM IBMX) at 30° C. in the presence of forskolin (an activator of adenylyl cyclase) (50 μM, Sigma Cat. No. F6886) and various compounds, to thereby allow production of cAMP. In this assay, striatum- or lung-derived membrane preparations were used in an amount of 1 μg, and heart-derived membrane preparation was used in an amount of 2 μg. 15 minutes (striatum and lung) or 30 minutes (heart) after its start, the reaction was terminated by adding trichloroacetate (TCA) solution to give a final concentration of 5%. Then, the protein was precipitated by centrifugation (13,500×g, 10 min).
# (§3) In both membrane adenylyl cyclase assay and cAMP accumulation assay, the amount of cAMP contained in TCA solution was determined by radioimmunoassay using […].
# [2] = Toxicity test (blood BUN, creatinine, GPT, GOT); format: in vivo, mouse; settings: 15 mg/kg/day for 7 days, osmotic mini-pump
# Description: FIG. 11 Toxicity test. Vidarabine, V2E, V3E and V5E were administered individually with an osmotic mini-pump (15 mg/kg/day for 7 days). Then, blood samples were taken and subjected to BUN, creatinine, GPT and GOT measurements. The results were compared with the results from a control group.
# Vidarabine, V2E, V3E and V5E were administered individually to WT (C57BL/6N; Nippon SLC) with an osmotic mini-pump (15 mg/kg/day for 7 days). Then, blood samples were taken and subjected to BUN, creatinine, OPT and GOT measurements. The results were compared with the results from control group.
# [3] = target: T2, adenylyl cyclase activity in the heart; assay: Membrane adenylyl cyclase assay, WT heart membrane, forskolin-stimulated; format: biochemical, mouse; settings: WT; estimated from 10, 50 and 100 μM; 50 μM forskolin
# T2 construct: IC50 on adenylyl cyclase activity in the heart; other: WT; estimated from 10, 50 and 100 μM
# Text: FIG. 3 Inhibitory effects of individual vidarabine derivatives on adenylyl cyclase activity in the striatum, heart and lung. With adenylyl cyclase activity in the presence of […] but in the absence of inhibitors being taken as 100, the reductions in adenylyl cyclase activity upon treatment with various inhibitors at the concentrations indicated on the horizontal axis are shown (n=4, means±S.E.).
# as §1, §2, §3
# H9c2 cells = assay: cAMP accumulation assay in H9c2 cells, forskolin stimulation; format: cell-based, rat; settings: 50 μM compound, 100 μM forskolin, n=1, preliminary
# Description: […] <H9c2 Cultured Cells> […] No. D6429) in the presence of 95% air+5% CO2 at 37° C. 80-90% confluent H9c2 cells were suspended in 10% FBS-containing DMEM. The cell suspension (500 μl) was added to each well of 24-well plates to give a density of 40,000 cells/well, and incubated overnight at 37° C. Subsequently, cells were incubated in serum-free DMEM (500 μl/well) for 48 hours and subjected to cAMP accumulation assay. <cAMP Accumulation Assay> H9c2 cells were incubated in the presence of 500 μM IBMX for 20 minutes at 37° C. Then, various vidarabine derivatives were added to the culture broth to give a concentration of 50 μM. Cells were further incubated for 10 minutes at 37° C. […] Cells were further incubated at 4° C. overnight. Similar experiments were also carried out on rat adult cultured cardiac myocytes under stimulation with various vidarabine derivatives (10 μM) and forskolin (5 μM). In both membrane adenylyl cyclase assay and cAMP accumulation assay, the amount of cAMP contained in TCA solution was determined by radioimmunoassay using […].
# [4] = system: cardiac function (LVEF) of isoproterenol-loaded mice; assay: Chronic catecholamine loading experiment (isoproterenol heart failure model); format: in vivo, mouse; settings: 15 mg/kg/day for 7 days, osmotic mini-pump, with isoproterenol 60 mg/kg/day; C57BL/6N
# Description: FIG. 9 Prophylactic effects on heart failure. Isoproterenol alone (60 mg/kg/day for 7 days) was administered to wild-type mice (C57BL/6N) for one week with an osmotic mini-pump (Alzet2001) (ISO). Other WT received isoproterenol with vidarabine, V2E, V3E or V5E (15 mg/kg/day for 7 days).
# <Chronic Catecholamine Loading Experiment>
# An osmotic mini-pump filled with isoproterenol was hypodermically implanted in mice, and isoproterenol was administered for 1 week continuously in a sustained-release manner (60 mg/kg). The cardiac function of mice (EF, ejection fraction) was measured by cardiac ultrasonography, and values before and after isoproterenol administration were compared. It is generally known that when isoproterenol is administered to mice with a mini-pump, their cardiac function (EF) decreases (i.e., they manifest heart failure).
# Isoproterenol alone (60 mg/kg/day for 7 days) was administered to WT (C57BL/6N) for 1 week with an osmotic mini-pump (Alzet 2001). Other WT received isoproterenol and, at the same time, vidarabine, V2E, V3E or V5E (15 mg/kg/day for 7 days).
SMILES,activity at 100 µM [1],BUN compared with control group [2],GOT compared with control group [2],OPT compared with control group [2],creatinine compared with control group [2],IC50 [3],level of cAMP accumulated in response to forskolin (relative to control) (H9c2 cells),inhibition of the isoproterenol-induced decrease of cardiac function (LVEF) [4]
"CN(C)CC(=O)OC1C(O)C(CO)OC1n1cnc2c(N)ncnc21 (centres unmarked) [V2E, 2-O—(N,N-Dimethylglycyl)Vidarabine]",~24.5%,No significant increase,No significant increase,No significant increase,No significant increase,17.8 µM,about 57.1%,comparable to that of vidarabine
"CN(C)CC(=O)OC1C(CO)OC(n2cnc3c(N)ncnc32)C1O (centres unmarked) [V3E, 3-O—(N,N-Dimethylglycyl)Vidarabine]",~25.1%,No significant increase,No significant increase,No significant increase,No significant increase,19.9 µM,about 45.7%,comparable to that of vidarabine
"CN(C)CC(=O)OCC1OC(n2cnc3c(N)ncnc32)C(O)C1O (centres unmarked) [V5E, 5-O—(N,N-Dimethylglycyl)Vidarabine]",~24.9%,No significant increase,No significant increase,No significant increase,No significant increase,42.9 µM,about 82.5%,comparable to that of vidarabine
"Nc1ncnc2c1ncn2[C@@H]1O[C@H](CO)[C@@H](O)[C@@H]1O [vidarabine, reference compound]",~17.3%,No significant increase,No significant increase,No significant increase,No significant increase,7.7 µM,about 35.1%,significantly inhibited

# — patent publication US9096632B2, “Modulator of activity of adenylate cyclase” (Public University Corporation Yokohama City University, priority 2010, dated 2015)
